Measurements published in patent US11478558B2, “Prostate-specific membrane antigen targeted high-affinity agents for endoradiotherapy of prostate cancer” (The Johns Hopkins University, priority 2017, dated 2022).

How the values were obtained:
[1] = system: PSMA(+) PC3 PIP and PSMA(−) PC3 flu tumor xenografts; test: Biodistribution of 177Lu compounds (Example 5)
PSMA(+) PC3 PIP cells = test: Cell uptake, cell surface binding and internalization in PSMA(+) PC3 PIP cells; format: cell-based, human; details: for Blockade PC3 PIP: ZJ43 10 μM; for total uptake within the PSMA(+) PC3 PIP cells: 1 h to 24 h
PSMA(−) PC3 flu cells = test: Cell uptake in PSMA(−) PC3 flu cells; format: cell-based, human
PSMA+ PC3 PIP tumors = test: Radiopharmaceutical therapy in PC3 PIP flank tumor growth delay model; format: in vivo, NOD/SCID mice; details: for Median survival After 8 weeks post-treatment / Tumors above stated relative tumor growth after week 8 post-treatment (Vt/V0) / Mouse death (number of mice): 111 MBq; for Mouse death (number of mice): up to week 8 post-treatment; for Average final body weight: single i.v. dose 111 MBq (3 mCi)
Protocol: (§1) A pilot treatment study using NOD/SCID mice (n=10 per group) bearing PSMA+ PC3 PIP tumors with a single intravenous dose of 111 MBq (3 mCi) of agents ^177Lu-PSMA-617, ^177Lu-1, ^177Lu-3 and ^177Lu-5 and the control group (with saline treatment) were performed (Table 8). Volume of the all control group mice reached >5-fold of their initial tumor volume within 14 days. Mouse euthanized for treated group within 4 weeks of post-injection was mainly due to sudden body weight loss and not related to tumor growth. […] The difference among treatment groups was statistically significant (P=0.002) by the log-rank test compared to the untreated group. […] After 8-weeks, three mice from each treated group were used for detailed blood analysis and necropsy study. All animals underwent radiotherapy study had normal creatinine (0.3-0.4 mg/dL) and blood urea nitrogen levels. […] Additionally, a significant lowering of platelet for all three treated mice from ^177Lu-PSMA-617 compared control group and other treated groups.
Median survival for the ^177Lu-PSMA-617 was 133 days vs. 234 days for ^177Lu-1.
The remaining treated mice survived tumor-free for 10 months and were evaluated for toxicity.
(§2) Antitumor efficacy studies were performed in PC3 PIP flank tumor growth delay model to evaluate the therapeutic efficacy of a single dose intravenous injection of ^177Lu-L1, ^177Lu-L3, ^177Lu-L5 and ^177Lu-PSMA-617 vs. saline. This was a head-to-head comparison study and same batch of tumor-bearing mice and radioactivity. The study was commenced 14-18 days post-inoculation of the xenografts, when all the mice had tumor volume of about ˜60-85 mm^3 (Table 8). All the living mice were monitored for 8 weeks to monitor the growth delay. Mice body weight and tumor volume were monitored every 3 days throughout the experiment. Endpoint criteria defined by the institute ACUC was weight loss≥15%, a tumor volume>1800 mm^3, active ulceration of the tumor or abnormal behavior indicating pain or unease. After 8-weeks, three mice from each group were submitted for detail necropsy and blood analysis. Mice group treated with ^177Lu-1 and ^177Lu-PSMA-617 were continued to monitor until the endpoint. These definitions were also used for Kaplan-Meier analysis. The probability of reaching 5 times the initial tumor volume was characterized using Kaplan-Meier curves, and comparison was performed using the log-rank test. The formula used for calculation of tumor volume was V=width^2×length/2. Toxicity of the ^177Lu-treatment groups after 8-weeks and in healthy CD-1 (n=3) mice treated with 111 MBq was evaluated by pathologic examination at the Johns Hopkins Pathology Core facility with serum metabolic panel, blood counts, and full necropsy including detailed histopathology of kidneys, salivary glands and lacrimal glands.

[2] = Blood analysis and necropsy after radiotherapy; format: in vivo, NOD/SCID mice
Protocol: as §1
Significant and concerning changes were identified in testes, and lacrimal grands primarily (FIG. 25) for all treated groups. […] Parotid glands, usually adjacent to exorbital lacrimal gland, are conspicuously spared and there were mild changes in the group treated ^177Lu-PSMA-617. […] T lymphoblastic lymphoma is accelerated by irradiation and some carcinogens, and is associated with interactions of endogenous retroviruses/retroelements in NOD/SCID mouse strains. […] The cells are large up to 25 μm, with very large nuclei (for a mouse) usually 2-3 nucleoli, and a high mitotic rate. Testis and lacrimal gland degenerative changes indicate that this animal did receive a treatment similar to other treated mice.
as §2

[3] = 111 MBq (3 mCi), after eight weeks, n=3

Compound	Cell uptake PC3 PIP (PSMA(+) PC3 PIP cells; 1 h)	PC3 PIP cell Int (internalization) (PSMA(+) PC3 PIP cells; 1 h)	Blockade PC3 PIP (PSMA(+) PC3 PIP cells; 1 h)	total uptake within the PSMA(+) PC3 PIP cells (PSMA(+) PC3 PIP cells)	Cell uptake PC3 PIP (PSMA(+) PC3 PIP cells; 2 h)	PC3 PIP, line without name (position of cell internalization) (PSMA(+) PC3 PIP cells; 2 h)	Cell uptake PC3 PIP (PSMA(+) PC3 PIP cells; 4 h)	PC3 PIP cell int (internalization) (PSMA(+) PC3 PIP cells; 4 h)	Cell uptake PC3 PIP (PSMA(+) PC3 PIP cells; 24 h)	PC3 PIP cell int (internalization) (PSMA(+) PC3 PIP cells; 24 h)	Cell uptake PC3 flu (PSMA(−) PC3 flu cells; 1 h)	Cell uptake PC3 flu (PSMA(−) PC3 flu cells; 2 h)	Cell uptake PC3 flu (PSMA(−) PC3 flu cells; 4 h)	Cell uptake PC3 flu (PSMA(−) PC3 flu cells; 24 h)	Median survival After 8 weeks post-treatment (PSMA+ PC3 PIP tumors)	Tumors above stated relative tumor growth after week 8 post-treatment (Vt/V0) (PSMA+ PC3 PIP tumors)	Mouse death (number of mice) (PSMA+ PC3 PIP tumors)	Average final body weight (PSMA+ PC3 PIP tumors) [gram]	further results
O=C([O-])CN1CCN(CC(=O)[O-])CCN(CC(=O)N[C@H](CCCCNC(=O)CCCc2ccc(I)cc2)C(=O)N[C@@H](CCCCNC(=O)CCCCCCC(=O)NCCCC[C@H](NC(=O)N[C@@H](CCC(=O)O)C(=O)O)C(=O)O)C(=O)O)CCN(CC(=O)[O-])CC1.[177Lu+3] [^177Lu-14]	–	–	–	–	–	–	–	–	–	–	–	–	–	–	–	–	–	–	Kidney uptake ([1]; 48 h): 17.47±4.18 % ID/g; blood uptake ([1]; 48 h): 2.48±0.44 % ID/g; initial kidney uptake ([1]; time not given): 49.49±19.55 % ID/g; fold clearance of kidney activity ([1]; to 48 h): ~3 fold
O=C([O-])CN1CCN(CC(=O)[O-])CCN(CC(=O)NCc2ccc(C(=O)NCCCCCC(=O)N(CCCC[C@H](NC(=O)N[C@@H](CCC(=O)O)C(=O)O)C(=O)O)Cc3ccc(Br)cc3)cc2)CCN(CC(=O)[O-])CC1.[177Lu+3] [^177Lu-L3]	27.0 ± 1.3 % incubated dose per 1 x 10^6 cells	21.4 ± 1.4 % incubated dose per 1 x 10^6 cells	0.1 ± 0.0 % incubated dose per 1 x 10^6 cells	~30 % of the incubated dose	36.5 ± 0.3 % incubated dose per 1 x 10^6 cells	23.7 ± 0.2 % incubated dose per 1 x 10^6 cells	32.6 ± 8.5 % incubated dose per 1 x 10^6 cells	24.9 ± 3.4 % incubated dose per 1 x 10^6 cells	45.2 ± 1.2 % incubated dose per 1 x 10^6 cells	30.0 ± 0.7 % incubated dose per 1 x 10^6 cells	0.1 ± 0.0 % incubated dose per 1 x 10^6 cells	0.1 ± 0.0 % incubated dose per 1 x 10^6 cells	0.1 ± 0.1 % incubated dose per 1 x 10^6 cells	0.1 ± 0.0 % incubated dose per 1 x 10^6 cells	Not reached	Two tumor > 4	Mouse death 3	25.8 ± 2.6	–
O=C([O-])CN1CCN(CC(=O)[O-])CCN(CC(=O)NCc2ccc(C(=O)NCCCCNC(=O)CCCCCCC(=O)N(CCCC[C@H](NC(=O)N[C@@H](CCC(=O)O)C(=O)O)C(=O)O)Cc3ccc(Br)cc3)cc2)CCN(CC(=O)[O-])CC1.[177Lu+3] [^177Lu-L5]	26.6 ± 0.6 % incubated dose per 1 x 10^6 cells	24.1 ± 0.5 % incubated dose per 1 x 10^6 cells	0.0 ± 0.0 % incubated dose per 1 x 10^6 cells	~30 % of the incubated dose	29.23 ± 0.8 % incubated dose per 1 x 10^6 cells	25.0 ± 0.9 % incubated dose per 1 x 10^6 cells	34.4 ± 1.2 % incubated dose per 1 x 10^6 cells	26.1 ± 1.0 % incubated dose per 1 x 10^6 cells	49.8 ± 1.4 % incubated dose per 1 x 10^6 cells	27.9 ± 0.8 % incubated dose per 1 x 10^6 cells	0.2 ± 0.1 % incubated dose per 1 x 10^6 cells	0.0 ± 0.0 % incubated dose per 1 x 10^6 cells	0.1 ± 0.0 % incubated dose per 1 x 10^6 cells	0.1 ± 0.0 % incubated dose per 1 x 10^6 cells	Not reached	one tumor > 5	Mouse death 3	27.5 ± 1.9	Albumin [2, 3]: 3 ± 0.4 g/dL; Blood urea nitrogen [2, 3]: 22.7 ± 3.2 mg/dL; Hematocrit [2, 3]: 49.7 ± 2.4%; Hemoglobin [2, 3]: 14.3 ± 1.0 g/dL; Lymphocytes [2, 3]: 0.4 ± 0.1 K/μL; Mean Corpuscular Value(MCV) [2, 3]: 54.1 ± 1.4 fL; Neutrophils [2, 3]: 2.0 ± 1.8 K/μL; Platelets [2, 3]: 1415.3 ± 88.5 K/μL; Red blood cells [2, 3]: 9.2 ± 0.7 M/μL; Total protein [2, 3]: 5.9 ± 0.6 g/dL; White blood cells [2, 3]: 2.9 ± 1.8 K/μL; H&E pathology of testis ([2]; 111 MBq, after 8 weeks): most significant changes in testis; PSMA(+) PC3 PIP tumor uptake ([1]; 3 h post-injection): 56.3±18.3 % ID/g
O=C([O-])CN1CCN(CC(=O)[O-])CCN(CC(=O)O)C(Cc2ccc(NC(=S)NCCCCC(=O)NCCCC[C@H](NC(=O)N[C@@H](CCC(=O)O)C(=O)O)C(=O)O)cc2)CN(CC(=O)[O-])CC1.[177Lu+3] (stereo partly shown) [^177Lu-L7]	–	–	–	–	–	–	–	–	–	–	–	–	–	–	–	–	–	–	PSMA(+) PC3 PIP tumor uptake ([1]; 2 h): 25.4±7.2 % ID/g; PSMA(+) PC3 PIP tumor uptake ([1]; 24 h post-injection): 7.0±1.5 % ID/g; PSMA(+) PC3 PIP tumor uptake ([1]; 48 h): 7.0±3.3 % ID/g; PSMA(+) PC3 PIP tumor uptake ([1]; fourth time point, time not given): 2.3±0.0 % ID/g
O=C([O-])CN1CCN(CC(=O)[O-])CCN(CC(=O)NCC2CCC(C(=O)N(CCCCC(NC(=O)NC(CCC(=O)O)C(=O)O)C(=O)O)Cc3ccc(Br)cc3)CC2)CCN(CC(=O)[O-])CC1.[177Lu+3] (stereo not shown) [^177Lu-L11]	–	–	–	–	–	–	–	–	–	–	–	–	–	–	–	–	–	–	fold lower uptake compared to 177Lu-L1 (PSMA(+) PC3 PIP cells): > 1.5 fold
